Measured values taken from US10800816B2 (Baxalta GmbH, priority 2012, dated 2020).
Bridges are numbered along the chain shown (N, C = ends). [ ]: non-standard residue; d: D form. Aib = CC(C)(N)C(=O)O; Sar = CNCC(=O)O

Tested on: not listed separately
Assay: FIGURE 78P

Compound	24 h Human Plasma Stability | Mean Remaining [%]	24 h Mouse Plasma Stability | Mean Remaining [%]
CC(C)C[C@@H]1NC(=O)[C@H](CCCCN)NC(=O)[C@H](C)NC(=O)C(C)(C)NC(=O)[C@H](CC(C)C)NC(=O)[C@H](CCCNC(=N)N)NC(=O)[C@H](CCC(=O)O)NC(=O)[C@H](Cc2ccccc2)NC(=O)[C@H](Cc2ccc(O)cc2)NC(=O)CNC(=O)[C@H](CC(=O)O)NC(=O)[C@H](C(C)C)NC(=O)[C@H](Cc2c[nH]cn2)NC(=O)[C@H](C(C)C)NC(=O)[C@H](CC(N)=O)NC(=O)[C@H]2CCCN2C(=O)[C@H](CCCCN)NC(=O)[C@H](CO)NC(=O)[C@H](CCC(N)=O)NC(=O)[C@H](Cc2ccccc2)NC(=O)CCOCCOCCOCCNC1=O [JBT00002407]	45.20	
CC(C)C[C@@H]1NC(=O)[C@H](CCCCN)NC(=O)[C@H](C)NC(=O)C(C)(C)NC(=O)[C@H](CC(C)C)NC(=O)[C@H](CCCNC(=N)N)NC(=O)[C@H](CCC(=O)O)NC(=O)[C@H](Cc2ccccc2)NC(=O)[C@H](Cc2ccc(O)cc2)NC(=O)CNC(=O)[C@H](CC(=O)O)NC(=O)[C@H](C(C)C)NC(=O)[C@H](Cc2c[nH]cn2)NC(=O)[C@H](C(C)C)NC(=O)[C@H](CC(N)=O)NC(=O)[C@H]2CCCN2C(=O)[C@H](CCCCN)NC(=O)[C@H](CO)NC(=O)[C@H](CCC(N)=O)NC(=O)[C@H](Cc2ccccc2)NC(=O)CCOCCOCCOCCOCCNC1=O [JBT00002406]	62.80	38.10
CC(C)C[C@@H]1NC(=O)[C@H](CCCCN)NC(=O)[C@H](C)NC(=O)C(C)(C)NC(=O)[C@H](CC(C)C)NC(=O)[C@H](CCCNC(=N)N)NC(=O)[C@H](CCC(=O)O)NC(=O)[C@H](Cc2ccccc2)NC(=O)[C@H](Cc2ccc(O)cc2)NC(=O)CNC(=O)[C@H](CC(=O)O)NC(=O)[C@H](C(C)C)NC(=O)[C@H](Cc2c[nH]cn2)NC(=O)[C@H](C(C)C)NC(=O)[C@H](CC(N)=O)NC(=O)[C@H]2CCCN2C(=O)[C@H](CCCCN)NC(=O)[C@H](CO)NC(=O)[C@H](CCC(N)=O)NC(=O)[C@H](Cc2ccccc2)NC(=O)COCCOCCNC1=O [JBT00002408]	61.60	39.40

Tested on: TFPI
Assay: Extrinsic Tenase Inhibition assay | % Inhibition @ 2.5μM

Compound	Extrinsic Tenase Inhibition assay | % Inhibition @ […] [%]
Ac-FQSKGNVFvFGYFERLRAKL-NH2 (SEQ ID NO: 936) (Ac-FQSKGNVF[dV]FGYFERLRAKL-NH2; SMILES CC(=O)N[C@@H](Cc1ccccc1)C(=O)N[C@@H](CCC(N)=O)C(=O)N[C@@H](CO)C(=O)N[C@@H](CCCCN)C(=O)NCC(=O)N[C@@H](CC(N)=O)C(=O)N[C@H](C(=O)N[C@@H](Cc1ccccc1)C(=O)N[C@@H](C(=O)N[C@@H](Cc1ccccc1)C(=O)NCC(=O)N[C@@H](Cc1ccc(O)cc1)C(=O)N[C@@H](Cc1ccccc1)C(=O)N[C@@H](CCC(=O)O)C(=O)N[C@@H](CCCNC(=N)N)C(=O)N[C@@H](CC(C)C)C(=O)N[C@@H](CCCNC(=N)N)C(=O)N[C@@H](C)C(=O)N[C@@H](CCCCN)C(=O)N[C@@H](CC(C)C)C(N)=O)C(C)C)C(C)C) [JBT1149]	0
Ac-FQSK-Nmg-NVFVAGYFERLRAKL-NH2 (SEQ ID NO: 161) (Ac-FQSK[Sar]NVFVAGYFERLRAKL-NH2; SMILES CC(=O)N[C@@H](Cc1ccccc1)C(=O)N[C@@H](CCC(N)=O)C(=O)N[C@@H](CO)C(=O)N[C@@H](CCCCN)C(=O)N(C)CC(=O)N[C@@H](CC(N)=O)C(=O)N[C@H](C(=O)N[C@@H](Cc1ccccc1)C(=O)N[C@H](C(=O)N[C@@H](C)C(=O)NCC(=O)N[C@@H](Cc1ccc(O)cc1)C(=O)N[C@@H](Cc1ccccc1)C(=O)N[C@@H](CCC(=O)O)C(=O)N[C@@H](CCCNC(=N)N)C(=O)N[C@@H](CC(C)C)C(=O)N[C@@H](CCCNC(=N)N)C(=O)N[C@@H](C)C(=O)N[C@@H](CCCCN)C(=O)N[C@@H](CC(C)C)C(N)=O)C(C)C)C(C)C) [JBT1396]	34
Ac-FQSKKNVFVFGYFERLRAKD-NH2 (SEQ ID NO: 937) [JBT1151]	0
Ac-FQSK-Nmg-NVFVTGYFERL-Aib-AKL-NH2 (SEQ ID NO: 165) (Ac-FQSK[Sar]NVFVTGYFERL[Aib]AKL-NH2; SMILES CC(=O)N[C@@H](Cc1ccccc1)C(=O)N[C@@H](CCC(N)=O)C(=O)N[C@@H](CO)C(=O)N[C@@H](CCCCN)C(=O)N(C)CC(=O)N[C@@H](CC(N)=O)C(=O)N[C@H](C(=O)N[C@@H](Cc1ccccc1)C(=O)N[C@H](C(=O)N[C@H](C(=O)NCC(=O)N[C@@H](Cc1ccc(O)cc1)C(=O)N[C@@H](Cc1ccccc1)C(=O)N[C@@H](CCC(=O)O)C(=O)N[C@@H](CCCNC(=N)N)C(=O)N[C@@H](CC(C)C)C(=O)NC(C)(C)C(=O)N[C@@H](C)C(=O)N[C@@H](CCCCN)C(=O)N[C@@H](CC(C)C)C(N)=O)[C@@H](C)O)C(C)C)C(C)C) [JBT1585]	48
Ac-FQSK-Nmg-NVFVTGYFERLRAKL-NH2 (SEQ ID NO: 125) (Ac-FQSK[Sar]NVFVTGYFERLRAKL-NH2; SMILES CC(=O)N[C@@H](Cc1ccccc1)C(=O)N[C@@H](CCC(N)=O)C(=O)N[C@@H](CO)C(=O)N[C@@H](CCCCN)C(=O)N(C)CC(=O)N[C@@H](CC(N)=O)C(=O)N[C@H](C(=O)N[C@@H](Cc1ccccc1)C(=O)N[C@H](C(=O)N[C@H](C(=O)NCC(=O)N[C@@H](Cc1ccc(O)cc1)C(=O)N[C@@H](Cc1ccccc1)C(=O)N[C@@H](CCC(=O)O)C(=O)N[C@@H](CCCNC(=N)N)C(=O)N[C@@H](CC(C)C)C(=O)N[C@@H](CCCNC(=N)N)C(=O)N[C@@H](C)C(=O)N[C@@H](CCCCN)C(=O)N[C@@H](CC(C)C)C(N)=O)[C@@H](C)O)C(C)C)C(C)C) [JBT1155]	32
Ac-FQSKpNVFVFGYFERLRAKL-NH2 (SEQ ID NO: 129) (Ac-FQSK[dP]NVFVFGYFERLRAKL-NH2; SMILES CC(=O)N[C@@H](Cc1ccccc1)C(=O)N[C@@H](CCC(N)=O)C(=O)N[C@@H](CO)C(=O)N[C@@H](CCCCN)C(=O)N1CCC[C@@H]1C(=O)N[C@@H](CC(N)=O)C(=O)N[C@H](C(=O)N[C@@H](Cc1ccccc1)C(=O)N[C@H](C(=O)N[C@@H](Cc1ccccc1)C(=O)NCC(=O)N[C@@H](Cc1ccc(O)cc1)C(=O)N[C@@H](Cc1ccccc1)C(=O)N[C@@H](CCC(=O)O)C(=O)N[C@@H](CCCNC(=N)N)C(=O)N[C@@H](CC(C)C)C(=O)N[C@@H](CCCNC(=N)N)C(=O)N[C@@H](C)C(=O)N[C@@H](CCCCN)C(=O)N[C@@H](CC(C)C)C(N)=O)C(C)C)C(C)C) [JBT1162]	51
Ac-FQSKKNVFFFGYFERLRAKL-NH2 (SEQ ID NO: 735) [JBT1152]	0
Ac-[CFQSKGNVFVDGYFERLC]AKL-NH2 (SEQ ID NO: 402) (Ac-CFQSKGNVFVDGYFERLCAKL-NH2; disulfide 1-18) [JBT1592]	11

Tested on: not listed separately
Assay: FIGURE 78M

Compound	24 h Human Plasma Stability | Mean Remaining [%]
CCN1C(=O)CC(SC[C@H](NC(=O)[C@H](CC(C)C)NC(=O)[C@H](CCCCN)NC(=O)[C@H](C)NC(=O)C(C)(C)NC(=O)[C@H](CC(C)C)NC(=O)[C@H](CCCNC(=N)N)NC(=O)[C@H](CCC(=O)O)NC(=O)[C@H](Cc2ccccc2)NC(=O)[C@H](Cc2ccc(O)cc2)NC(=O)CNC(=O)[C@H](CC(=O)O)NC(=O)[C@@H](NC(=O)[C@H](Cc2c[nH]cn2)NC(=O)[C@@H](NC(=O)[C@H](CC(N)=O)NC(=O)[C@H]2CCCN2C(=O)[C@H](CCCCN)NC(=O)[C@H](CO)NC(=O)[C@H](CCC(N)=O)NC(=O)[C@H](Cc2ccccc2)NC(C)=O)C(C)C)C2CCCC2)C(N)=O)C1=O (some centres unmarked) [JBT00002383, Ac-FQSKpNVH-Cpg-DGYFERL-Aib-AKLC(NEM)-NH2]	31.00
CCN1C(=O)CC(SC[C@H](NC(=O)[C@H](CC(C)C)NC(=O)[C@H](CCCCN)NC(=O)[C@H](C)NC(=O)C(C)(C)NC(=O)[C@H](CC(C)C)NC(=O)[C@H](CCCNC(=N)N)NC(=O)[C@H](CCC(=O)O)NC(=O)[C@H](Cc2ccccc2)NC(=O)[C@H](Cc2ccc(O)cc2)NC(=O)CNC(=O)[C@H](CC(=O)O)NC(=O)[C@H](CC(F)(F)F)NC(=O)[C@H](Cc2c[nH]cn2)NC(=O)[C@@H](NC(=O)[C@H](CC(N)=O)NC(=O)[C@H]2CCCN2C(=O)[C@H](CCCCN)NC(=O)[C@H](CO)NC(=O)[C@H](CCC(N)=O)NC(=O)[C@H](Cc2ccccc2)NC(C)=O)C(C)C)C(N)=O)C1=O (stereo partly drawn) [JBT00002382, Ac-FQSKpNVH-(L-2-Amino-4,4,4-trifluorobutyric acid)- DGYFERL-Aib-AKLC(NEM)-NH2]	20.50
CC[C@H](NC(=O)[C@H](Cc1c[nH]cn1)NC(=O)[C@@H](NC(=O)[C@H](CC(N)=O)NC(=O)[C@H]1CCCN1C(=O)[C@H](CCCCN)NC(=O)[C@H](CO)NC(=O)[C@H](CCC(N)=O)NC(=O)[C@H](Cc1ccccc1)NC(C)=O)C(C)C)C(=O)N[C@@H](CC(=O)O)C(=O)NCC(=O)N[C@@H](Cc1ccc(O)cc1)C(=O)N[C@@H](Cc1ccccc1)C(=O)N[C@@H](CCC(=O)O)C(=O)N[C@@H](CCCNC(=N)N)C(=O)N[C@@H](CC(C)C)C(=O)NC(C)(C)C(=O)N[C@@H](C)C(=O)N[C@@H](CCCCN)C(=O)N[C@@H](CC(C)C)C(=O)N[C@@H](CSC1CC(=O)N(CC)C1=O)C(N)=O (some centres unmarked) [JBT00002381, Ac-FQSKpNVH-Abu-DGYFERL-Aib-AKLC(NEM)-NH2]	17.30
CC(=O)N[C@@H](Cc1ccccc1)C(=O)N[C@@H](CCC(N)=O)C(=O)N[C@@H](CO)C(=O)N[C@@H](CCCCN)C(=O)N1CCC[C@@H]1C(=O)N[C@@H](CC(N)=O)C(=O)N[C@H](C(=O)N[C@@H](Cc1c[nH]cn1)C(=O)N[C@H](C(=O)N[C@@H](CS)C(=O)NCC(=O)N[C@@H](Cc1ccc(O)cc1)C(=O)N[C@@H](Cc1ccccc1)C(=O)N[C@@H](CCC(=O)O)C(=O)N[C@@H](CCCNC(=N)N)C(=O)N[C@@H](CC(C)C)C(=O)NC(C)(C)C(=O)N[C@@H](C)C(=O)N[C@@H](CCCCN)C(=O)N[C@@H](CC(C)C)C(N)=O)C(C)C)C(C)C [JBT00002371]	31.20
